According to US20240083857A1, “2-Methyl-Quinazolines” (Bayer Pharma Aktiengesellschaft, priority 2017, published 2024):

Key:
[1] = target: Epidermal Growth Factor Receptor (EGFR) (Homo sapiens (Human), UniProt P00533); assay: EGFR kinase assay (TR-FRET); assay type: biochemical; settings: values given in μM; read-out: EGFR kinase inhibition IC50
How it was run: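 Read-out is the 665/620 nm HTRF ratio, from a Tb-cryptate anti-phosphotyrosine antibody and streptavidin-XL665 bound to phosphorylated biotin-peptide substrate. The enzyme, A431-derived EGFR (~3 U/ml), was given 15 min compound pre-binding at 22° C in Hepes pH 7.0 with Mg2+/Mn2+ before reaction.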

[2] = target: K-Ras^G12C : hSOS1 interaction (Homo sapiens, UniProt Q07889); assay: Biochemical assay 1: K-Ras^G12C interaction assay with hSOS1 (HTRF); assay type: binding; settings: read-out: Assay 1 (KRAS-SOS Interaction) activity expressed as IC50

Sequence of Epidermal Growth Factor Receptor (EGFR) (P00533 25-1210): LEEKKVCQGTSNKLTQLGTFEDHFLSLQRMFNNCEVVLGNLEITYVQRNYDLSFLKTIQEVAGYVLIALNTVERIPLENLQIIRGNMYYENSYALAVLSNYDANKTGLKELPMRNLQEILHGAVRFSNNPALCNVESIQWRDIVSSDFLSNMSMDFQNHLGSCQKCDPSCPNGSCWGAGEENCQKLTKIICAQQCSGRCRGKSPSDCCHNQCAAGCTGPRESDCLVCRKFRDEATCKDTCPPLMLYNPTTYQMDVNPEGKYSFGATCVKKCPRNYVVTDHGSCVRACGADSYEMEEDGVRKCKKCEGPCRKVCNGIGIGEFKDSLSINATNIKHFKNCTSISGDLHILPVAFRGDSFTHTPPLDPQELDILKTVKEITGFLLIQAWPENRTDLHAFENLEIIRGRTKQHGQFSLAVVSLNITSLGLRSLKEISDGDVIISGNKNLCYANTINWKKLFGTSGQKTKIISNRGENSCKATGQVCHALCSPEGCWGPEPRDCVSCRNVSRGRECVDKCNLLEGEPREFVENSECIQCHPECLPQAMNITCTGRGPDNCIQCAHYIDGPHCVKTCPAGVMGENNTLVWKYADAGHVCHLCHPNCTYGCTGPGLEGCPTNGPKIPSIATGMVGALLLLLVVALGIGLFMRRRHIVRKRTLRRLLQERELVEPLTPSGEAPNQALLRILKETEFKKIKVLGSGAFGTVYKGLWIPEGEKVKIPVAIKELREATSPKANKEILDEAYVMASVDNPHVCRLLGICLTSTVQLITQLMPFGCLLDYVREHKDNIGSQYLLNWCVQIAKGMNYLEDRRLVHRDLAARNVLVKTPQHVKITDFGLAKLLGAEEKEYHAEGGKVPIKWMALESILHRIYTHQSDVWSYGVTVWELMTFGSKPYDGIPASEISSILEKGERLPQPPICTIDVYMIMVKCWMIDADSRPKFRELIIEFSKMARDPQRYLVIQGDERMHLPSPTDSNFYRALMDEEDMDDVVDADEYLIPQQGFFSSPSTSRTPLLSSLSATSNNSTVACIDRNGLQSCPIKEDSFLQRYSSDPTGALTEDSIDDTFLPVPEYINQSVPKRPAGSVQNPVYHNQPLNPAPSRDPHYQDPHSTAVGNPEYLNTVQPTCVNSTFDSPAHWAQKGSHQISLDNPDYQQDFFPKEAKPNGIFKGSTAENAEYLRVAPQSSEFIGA

SMILES	IC50 [1]	IC50 [2]
CCCCNCc1ccccc1-c1ccc(C(C)Nc2nc(C)nc3cc(OC)c(OC)cc23)s1 (stereo not shown) [Example 366, N-[1-(5-{2-[(butylamino)methyl]phenyl}thiophen-2-yl)ethyl]-6,7-dimethoxy-2-methylquinazolin-4-amine]	> 20 µM	97.6 nM
CCNCc1ccccc1-c1ccc(C(C)Nc2nc(C)nc3cc(OC)c(OC)cc23)s1 (stereo not shown) [Example 367, N-[1-(5-{2-[(ethylamino)methyl]phenyl}thiophen-2-yl)ethyl]-6,7-dimethoxy-2-methylquinazolin-4-amine]	> 20 µM	71.6 nM
